Legend:
[1] = Stability of chelates in rat serum (CM-Sephadex assay, serum binding); settings: 24 hours in rat serum at room temperature
[2] = Blood depletion of Gd-DTPA in the rat after three sequential administrations (theoretical example); format: in vivo
Description: In this theoretical example, three 0.5 ml samples of Gd-DTPA (0.05 mg/kg) each dissolved in saline (pH 7) are injected sequentially at 0, 20, and 40 minutes into the tail vein of a rat. Samples of blood are obtained at 10, 30 and 60 minutes following each injection and analyzed for Gd by T1 relaxation. […] This example highlights one advantage of using neutron activation over T1 relaxivity to measure pharmacological rates of elimination when using sequential injections (compare Examples 32 and 33).

[3] = demonstrated by properties of the marketed pharmaceutical product; cited from earlier work
[4] = Effect of dilution on the stability of Sm-DTPA; format: physicochemical
Description: Sm-DTPA (1 mM) was prepared as described in Example 9. The solution was further diluted with 0.01 M Tris buffer pH 7.51:10, 1:100, 1:1000, and 1:10000 and allowed to stand at room temperature for 24 hours. The four samples were then assayed for stability of the Sm-DTPA complex as described in Example 17.

[5] = Fraction 1: 0.2 ml sample then 2 ml 0.01M Tris pH 7.5 (eluate)
[6] = Fraction 2: 3 ml 0.01M Tris pH 7.5
[7] = Fraction 3: column and contents (retained)
[8] = Sm-DTPA 0.1 μM, 24 hours room temperature, Fraction 1: 3 ml Tris before sample
[9] = Sm-DTPA 0.1 μM, 24 hours room temperature, Fraction 2: sample then 3 ml Tris (eluate)
[10] = Sm-DTPA 0.1 μM, 24 hours room temperature, Fraction 3: further 3 ml Tris
[11] = Sm-DTPA 0.1 μM, 24 hours room temperature, Fraction 4: column and contents
[12] = Sm-DTPA 1 μM, 24 hours room temperature, Fraction 1: 3 ml Tris before sample
[13] = Sm-DTPA 1 μM, 24 hours room temperature, Fraction 2: sample then 3 ml Tris (eluate)
[14] = Sm-DTPA 1 μM, 24 hours room temperature, Fraction 3: further 3 ml Tris
[15] = Sm-DTPA 1 μM, 24 hours room temperature, Fraction 4: column and contents
[16] = Sm-DTPA 10 μM, 24 hours room temperature, Fraction 1: 3 ml Tris before sample
[17] = Sm-DTPA 10 μM, 24 hours room temperature, Fraction 2: sample then 3 ml Tris (eluate)
[18] = Sm-DTPA 10 μM, 24 hours room temperature, Fraction 3: further 3 ml Tris
[19] = Sm-DTPA 10 μM, 24 hours room temperature, Fraction 4: column and contents
[20] = Sm-DTPA 100 uM, 24 hours room temperature, Fraction 1: 3 ml Tris before sample
[21] = Sm-DTPA 100 uM, 24 hours room temperature, Fraction 2: sample then 3 ml Tris (eluate)
[22] = Sm-DTPA 100 uM, 24 hours room temperature, Fraction 3: further 3 ml Tris
[23] = Sm-DTPA 100 uM, 24 hours room temperature, Fraction 4: column and contents
[24] = Sm-DTPA 1 mM, Fraction 1: 3 ml Tris before sample
[25] = Sm-DTPA 1 mM, Fraction 2: sample then 3 ml Tris (eluate)
[26] = Sm-DTPA 1 mM, Fraction 3: further 3 ml Tris
[27] = Sm-DTPA 1 mM, Fraction 4: column and contents

SMILES: O=C([O-])CN(CCN(CC(=O)[O-])CC(=O)[O-])CCN(CC(=O)[O-])CC(=O)[O-].[Eu+3] [Eu-DTPA]
- % of total [1, 5]: 91 % of total
- dpm [1, 5]: 4763 dpm
- % of total [1, 6]: 9 % of total
- dpm [1, 6]: 499 dpm
- % of total [1, 7]: 0 % of total
- dpm [1, 7]: 0 dpm

SMILES: O=C([O-])CN(CCN(CC(=O)[O-])CC(=O)O)CCN(CC(=O)[O-])CC(=O)O.[Gd+3] [Gd-DTPA, Gd-diethylenetriaminepentaacetic acid]
- Percent of initial injection, First injection ([2]; 0 min after 1st injection, Gd-DTPA 0.05 mg/kg i.v. at 0, 20, 40 minutes, T1 relaxation): 100% of initial injection
- Percent of initial injection, Cumulative total ([2]; 0 min after 1st injection, calculated based upon the first injection): 100% of initial injection
- Percent of initial injection, Cumulative total ([2]; 10 min after 1st injection): 81% of initial injection
- Percent of initial injection, First injection ([2]; 10 min after 1st injection): 81% of initial injection
- Percent of initial injection, Second injection ([2]; 20 min after 1st (0 min after 2nd) injection): 100% of initial injection
- Percent of initial injection, Cumulative total ([2]; 20 min after 1st injection): 173% of initial injection
- Percent of initial injection, First injection ([2]; 20 min after 1st injection): 73% of initial injection
- Percent of initial injection, Second injection ([2]; 30 min after 1st (10 min after 2nd) injection): 81% of initial injection
- Percent of initial injection, Cumulative total ([2]; 30 min after 1st injection): 140% of initial injection
- Percent of initial injection, First injection ([2]; 30 min after 1st injection): 59% of initial injection
- Percent of initial injection, Third injection ([2]; 40 min after 1st (0 min after 3rd) injection): 100% of initial injection
- Percent of initial injection, Second injection ([2]; 40 min after 1st (20 min after 2nd) injection): 73% of initial injection
- Percent of initial injection, Cumulative total ([2]; 40 min after 1st injection): 220% of initial injection
- Percent of initial injection, First injection ([2]; 40 min after 1st injection): 47% of initial injection
- Percent of initial injection, Third injection ([2]; 50 min after 1st (10 min after 3rd) injection): 81% of initial injection
- Percent of initial injection, Second injection ([2]; 50 min after 1st (30 min after 2nd) injection): 59% of initial injection
- Percent of initial injection, Cumulative total ([2]; 50 min after 1st injection): 175% of initial injection
- Percent of initial injection, First injection ([2]; 50 min after 1st injection): 35% of initial injection
- Percent of initial injection, Third injection ([2]; 60 min after 1st (20 min after 3rd) injection): 73% of initial injection
- Percent of initial injection, Second injection ([2]; 60 min after 1st (40 min after 2nd) injection): 47% of initial injection
- Percent of initial injection, Cumulative total ([2]; 60 min after 1st injection): 149% of initial injection
- Percent of initial injection, First injection ([2]; 60 min after 1st injection): 29% of initial injection
- Percent of initial injection, Third injection ([2]; 70 min after 1st (30 min after 3rd) injection): 59% of initial injection
- Percent of initial injection, Second injection ([2]; 70 min after 1st (50 min after 2nd) injection): 35% of initial injection
- Percent of initial injection, Cumulative total ([2]; 70 min after 1st injection): 120% of initial injection
- Percent of initial injection, First injection ([2]; 70 min after 1st injection): 26% of initial injection
- Percent of initial injection, Third injection ([2]; 80 min after 1st (40 min after 3rd) injection): 47% of initial injection
- Percent of initial injection, Second injection ([2]; 80 min after 1st (60 min after 2nd) injection): 26% of initial injection
- Percent of initial injection, Cumulative total ([2]; 80 min after 1st injection): 95% of initial injection
- Percent of initial injection, First injection ([2]; 80 min after 1st injection): 22% of initial injection
- Percent of initial injection, Third injection ([2]; 100 min after 1st (60 min after 3rd) injection): 35% of initial injection
- Percent of initial injection, Second injection ([2]; 100 min after 1st (80 min after 2nd) injection): 22% of initial injection
- Percent of initial injection, Cumulative total ([2]; 100 min after 1st injection): 75% of initial injection
- Percent of initial injection, First injection ([2]; 100 min after 1st injection): 18% of initial injection
- stability to autoclaving [3]: stability of gadolinium-DTPA to autoclaving is demonstrated

SMILES: O=C([O-])CN(CCN(CC(=O)[O-])CC(=O)[O-])CCN(CC(=O)[O-])CC(=O)[O-].[La+3] [La-DTPA]
- % of total [1, 5]: 93 % of total
- dpm [1, 5]: 82912 dpm
- % of total [1, 6]: 7 % of total
- dpm [1, 6]: 6167 dpm
- % of total [1, 7]: 0 % of total
- dpm [1, 7]: 0 dpm

SMILES: O=C([O-])CN(CCN(CC(=O)[O-])CC(=O)[O-])CCN(CC(=O)[O-])CC(=O)[O-].[Sm+3] [Sm-DTPA]
- % of total [4, 8]: 0 % of total
- Dpm [4, 8]: 0 dpm
- % of total [4, 9]: 99 % of total
- Dpm [4, 9]: 192 dpm
- % of total [4, 10]: 1 % of total
- Dpm [4, 10]: 1 dpm
- % of total [4, 11]: 0 % of total
- Dpm [4, 11]: 0 dpm
- % of total [4, 12]: 0 % of total
- Dpm [4, 12]: 0 dpm
- % of total [4, 13]: 96 % of total
- Dpm [4, 13]: 1386 dpm
- % of total [4, 14]: 2 % of total
- Dpm [4, 14]: 29 dpm
- % of total [4, 15]: 2 % of total
- Dpm [4, 15]: 21 dpm
- % of total [4, 16]: 0 % of total
- Dpm [4, 16]: 0 dpm
- % of total [4, 17]: 100 % of total
- Dpm [4, 17]: 15685 dpm
- % of total [4, 18]: <1 % of total
- Dpm [4, 18]: 19 dpm
- % of total [4, 19]: 0 % of total
- Dpm [4, 19]: 0 dpm
- % of total [4, 20]: 0 % of total
- Dpm [4, 20]: 0 dpm
- % of total [4, 21]: 98 % of total
- Dpm [4, 21]: 162208 dpm
- % of total [4, 22]: <1 % of total
- Dpm [4, 22]: 1308 dpm
- % of total [4, 23]: 2 % of total
- Dpm [4, 23]: 2121 dpm
- % of total [4, 24]: 0 % of total
- Dpm [4, 24]: 0 dpm
- % of total [4, 25]: 97 % of total
- Dpm [4, 25]: 1482087 dpm
- % of total [4, 26]: 1 % of total
- Dpm [4, 26]: 19089 dpm
- % of total [4, 27]: 2 % of total
- Dpm [4, 27]: 24257 dpm
- stability of the complex on dilution ([4]; concentration limits of 1 mM to 0.1 μM, 24 hours room temperature): stable complex
- % eluting from CM Sephadex columns ([4]; concentration range of 0.1 μM to 1 mM): 100%

Reference: patent US7048907B2, “Synthesis, compositions and methods for the measurement of the concentration of stable-isotope labeled compounds in life forms and life form excretory products” (BioPhysics Assay Laboratory, Inc., priority 2001, dated 2006)
